Assay results taken from patent US20220324809A1, “ATP-REGULATED POTASSIUM CHANNEL OPENERS AND USES THEREOF” (SALZMAN GROUP LTD., priority 2019, published 2022).

Assays:
Format in all cases: in vivo, Sprague-Dawley rats
MCT-induced PH [1] = assay: Intratracheal aerosolized R-1703 in rat treatment model of MCT-induced PH: acute effect
Protocol: (§1) Intratracheal (IT) aerosolized R-1703 is effective in a rodent treatment model of MCT-induced PH: Acute effect. 28 days after injection of MCT (60 mg/kg SC) and development of severe and stable PH, mechanically ventilated and anaesthetized Sprague-Dawley rats were dosed IT with aerosolized solution (2.0 mL) containing 500 or 5000 ng/mL of R-1703 in PBS. Vehicle controls received an equivalent volume of PBS. MCT induced a large increase in MPAP.

MCT-induced PH [2] = assay: Intratracheal aerosolized R-1703 in rat treatment model of MCT-induced PH: sustained effect
Protocol: as §1, with “Intratracheal” for “Intratracheal (IT)”, “Sustained” for “Acute”, “delivering 0.6, 6.0,” for “containing 500”, “30 micrograms per kg” for “5000 ng/mL”

MCT-induced PH [3] = assay: Single IV administration of R-1703 in rat treatment model of MCT-induced PH (acute and sustained effect)
Description: An established rat model for PH utilizes monocrotaline (MCT), a toxin derived from plants of the Crotalaria species, which causes pulmonary arterial endothelial cell injury and subsequent pulmonary artery smooth muscle hypertrophy. This model serves as a tool for assessing an immediate vasorelaxation effect by monitoring real-time right ventricular pressure in rats with PAH (late intervention regimen), as well as assessment of efficacy in a prevention of vascular remodeling progression (early intervention regimen). In the latter mode, weight ratios of left and right ventricles and histopathological assessment of right ventricular hypertrophy are used to evaluate the extent of fibrosis. R-1703 is effective in acutely treating a rodent model of MCT-induced PH. Sprague-Dawley rats (n=3 per group) were treated with a single subcutaneous (SC) injection of MCT with 60 mg/kg or an equivalent volume of saline (2 mL/kg). After a post-MCT period of 28 days wherein rats developed severe and stable PH, rats were anesthetized and endotracheally intubated, followed by a single intravenous (IV) administration of R-1703 (15, 30, 60, and 90 μg/kg, in PBS) via the tail vein. Vehicle controls received an equivalent volume of PBS. MCT induced a large increase in MPAP (from 25 to 50 mmHg). […] The experiments shown below have been repeated three times and are reproducible.

MCT-induced PH [4] = assay: Prophylactic daily IP R-1703 in rat model of MCT-induced PH; conditions: 50 micrograms per kg IP daily, measured 28 days post-MCT, p<0.001, FIG. 4
Protocol: Sprague-Dawley rats (n=3 per group) were treated with a single SC injection of MCT with 60 mg/kg or an equivalent volume of saline (2 mL/kg). Rats were then treated daily with 50 micrograms per kg of R-1703 by an intraperitoneal (IP) route of administration. After a post-MCT period of 28 days wherein vehicle control treated rats develop severe and stable PH, rats were anesthetized and endotracheally intubated.

[5] = IT aerosol 0.6, 6.0 or 30 micrograms per kg

CCC(C)(C)N/C(=N\C#N)Nc1cncc(C(=O)NCCO)c1 [R-1703]
effect on heart rate (MCT-induced PH [1]; IT aerosol 500 or 5000 ng/mL): no effect | effect on peripheral blood pressure (MCT-induced PH [1]; IT aerosol 500 or 5000 ng/mL): no effect | effect on MCT-induced elevation in MPAP (MCT-induced PH [1]; IT aerosolized solution 2.0 mL, 500 or 5000 ng/mL, acute effect, p<0.001, FIG. 2): dose-dependently reduced the MCT-induced elevation in MPAP | effect on heart rate (MCT-induced PH [2]; [5]): no effect | effect on peripheral blood pressure (MCT-induced PH [2]; [5]): no effect | effect on MCT-induced elevation in MPAP (MCT-induced PH [2]; IT aerosol delivering 0.6, 6.0 or 30 micrograms per kg, sustained effect, p<0.001, FIG. 3): dose-dependently reduced the MCT-induced elevation in MPAP | effect on heart rate (MCT-induced PH [3]; IV 15-90 μg/kg): no effect | effect on peripheral blood pressure (MCT-induced PH [3]; IV 15-90 μg/kg): no effect | persistence of effect on MPAP post dose (MCT-induced PH [3]; IV, FIG. 1B): at least 24 h | persistence of effect on MPAP after administration (MCT-induced PH [3]; IV, FIG. 1B legend): at least 24 hours | effect on MCT-induced elevation in MPAP (MCT-induced PH [3]; single IV 15, 30, 60, 90 μg/kg in PBS, 28 days post-MCT): dose-dependently reduced the MCT-induced elevation in MPAP | restoration of normal pressures (MPAP) (MCT-induced PH [3]; single IV dose 90 μg/kg, 28 days post-MCT, p<0.000005, FIG. 1A): 100% | restoration of normal pressures (MPAP) (MCT-induced PH [4]): 80%
